# Measurements as given in ChEMBL document CHEMBL1821724, “Synthesis and in vitro evaluation of derivatives of the β₁-adrenergic receptor antagonist HX-CH 44” (Bioorg Med Chem Lett, 2011).
# Columns and labels:
# [1] = target: Beta-1 adrenergic receptor (Homo sapiens, UniProt P08588); assay: Displacement of [125I]-Iodopindolol from beta1-adrenergic receptor after 1.5 hrs by liquid scintillation counting
# [2] = target: Beta-2 adrenergic receptor (Homo sapiens, UniProt P07550); assay: Displacement of [125I]-Iodopindolol from beta2-adrenergic receptor after 1.5 hrs by liquid scintillation counting
# Sequence of Beta-2 adrenergic receptor (P07550 whole entry): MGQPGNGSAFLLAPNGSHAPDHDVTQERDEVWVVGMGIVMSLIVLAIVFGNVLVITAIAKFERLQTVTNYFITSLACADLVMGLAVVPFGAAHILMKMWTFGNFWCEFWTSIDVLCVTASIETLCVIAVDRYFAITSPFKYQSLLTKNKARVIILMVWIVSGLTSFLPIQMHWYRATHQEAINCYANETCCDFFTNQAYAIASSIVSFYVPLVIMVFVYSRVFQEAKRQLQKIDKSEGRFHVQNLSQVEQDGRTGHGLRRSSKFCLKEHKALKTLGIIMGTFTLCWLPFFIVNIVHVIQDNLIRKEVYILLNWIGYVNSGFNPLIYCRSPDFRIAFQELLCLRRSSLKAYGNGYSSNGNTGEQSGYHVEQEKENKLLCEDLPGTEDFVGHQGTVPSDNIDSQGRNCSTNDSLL
# [3] = target: T1, 5-hydroxytryptamine receptor 1A (Homo sapiens, UniProt P08908); assay: Displacement of [3H]-8-OH-DPAT from 5HT1A receptor after 1.5 hrs by liquid scintillation counting
# T1 sequence (P08908 whole entry): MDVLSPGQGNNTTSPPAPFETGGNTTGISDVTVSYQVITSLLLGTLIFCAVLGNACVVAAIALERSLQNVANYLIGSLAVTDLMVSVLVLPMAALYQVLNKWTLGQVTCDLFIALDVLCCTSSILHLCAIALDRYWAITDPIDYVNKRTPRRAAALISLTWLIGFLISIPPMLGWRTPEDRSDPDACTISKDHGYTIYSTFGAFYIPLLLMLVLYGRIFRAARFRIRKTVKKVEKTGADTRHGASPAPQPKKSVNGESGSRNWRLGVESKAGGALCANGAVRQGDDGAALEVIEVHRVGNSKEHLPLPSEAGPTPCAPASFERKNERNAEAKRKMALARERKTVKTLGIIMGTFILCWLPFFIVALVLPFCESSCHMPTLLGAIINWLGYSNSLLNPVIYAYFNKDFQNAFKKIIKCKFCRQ
# [4] = target: Beta-1 adrenergic receptor (Rattus norvegicus, UniProt P18090); assay: Displacement of [3H]-CGP12177 from beta1-adrenergic receptor in rat heart membranes; format: cell membranes, Membrane
# Sequence of Beta-1 adrenergic receptor (Rattus norvegicus, UniProt P18090) (P18090 whole entry): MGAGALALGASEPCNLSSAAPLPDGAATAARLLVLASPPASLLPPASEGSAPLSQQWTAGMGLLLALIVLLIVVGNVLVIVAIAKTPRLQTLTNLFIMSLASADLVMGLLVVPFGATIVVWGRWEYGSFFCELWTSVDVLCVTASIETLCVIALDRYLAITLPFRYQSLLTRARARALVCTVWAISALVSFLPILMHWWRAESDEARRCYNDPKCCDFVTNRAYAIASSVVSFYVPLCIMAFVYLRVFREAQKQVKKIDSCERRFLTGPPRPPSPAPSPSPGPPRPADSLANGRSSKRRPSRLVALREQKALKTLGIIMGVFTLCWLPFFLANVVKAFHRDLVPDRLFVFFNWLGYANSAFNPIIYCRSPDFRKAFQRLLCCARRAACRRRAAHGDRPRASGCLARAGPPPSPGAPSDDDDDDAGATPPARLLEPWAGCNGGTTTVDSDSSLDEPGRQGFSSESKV
# Sequence of Beta-1 adrenergic receptor (Homo sapiens, UniProt P08588) (P08588 whole entry): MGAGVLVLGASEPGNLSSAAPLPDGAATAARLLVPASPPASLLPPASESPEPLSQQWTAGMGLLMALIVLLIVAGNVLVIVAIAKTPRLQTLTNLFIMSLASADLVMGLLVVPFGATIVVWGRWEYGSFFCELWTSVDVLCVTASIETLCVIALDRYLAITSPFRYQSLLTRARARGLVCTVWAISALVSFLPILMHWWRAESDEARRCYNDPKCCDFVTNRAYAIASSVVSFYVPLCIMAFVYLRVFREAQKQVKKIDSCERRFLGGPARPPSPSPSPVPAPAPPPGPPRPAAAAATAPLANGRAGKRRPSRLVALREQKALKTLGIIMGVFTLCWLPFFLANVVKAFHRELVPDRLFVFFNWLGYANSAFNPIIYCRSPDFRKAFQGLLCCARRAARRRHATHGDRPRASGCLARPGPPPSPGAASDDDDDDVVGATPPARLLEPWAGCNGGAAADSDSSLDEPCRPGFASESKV
Ki [1],Ki [2],Ki [3],Ki [4],Compound
3 µM,> 10 µM,> 10 µM,,COc1ccc2nc(-c3ccc(OC[C@@H](O)CNC(C)CF)cc3)n(C)c(=O)c2c1 (stereo not given in full)
2.3 µM,> 10 µM,> 10 µM,,COc1ccc2nc(-c3ccc(OCC(O)CNC(C)CF)cc3)n(C)c(=O)c2c1 (mixture of isomers)
,,,0.077 µM,COc1ccc2nc(-c3ccc(OCC(O)CNC(C)(C)C)cc3)n([11CH3])c(=O)c2c1 (racemic)
2.4 µM,7.7 µM,5.5 µM,,COc1ccc2nc(-c3ccc(OCC(O)CNC(C)C)cc3)n(C)c(=O)c2c1 (racemic)
